Counter-ions that a name gives are not always drawn.
Legend:
[1] = tested on: Mexican Heather plants; assay: Soil application of IDS and/or EDDS free acids to Mexican heather plants (Example IV); format: in vivo, Cuphea hyssopifolia Kunth.; conditions: 200 ppm free acid; for root mass versus vegetative growth: within 10 mm of each plant
Protocol: Four sets of six Mexican Heather plants each were placed on trays without transplanting. 0.2 gm/liter stock solutions of IDS and EDDS free acids prepared according to Example III, supra, were used, in three different treatments (EDDS alone, IDS alone and a 50:50 mixture of EDDS and IDS) to treat the three sets of plants as set forth in Table IV, attached, by placing the solutions into the soil within 10 mm. of each of the plants. A fourth set was treated with distilled water (the ‘control’ set).

[2] = tested on: Lettuce seeds; conditions: cultured in a fertilizer soln. contg. 100 ppm; cited from earlier work
[3] = tested on: germinated sweet corn seeds; assay: Germinated sweet corn seeds on water plates treated with tetra-sodium salt of EDDS (Example I); format: in vivo, Zea mays L. var. saccharata; conditions: for germinating-seed stimulating concentration: germinating sweet corn seed, treating solution; for NUMBER OF SEED GERMINATED AND SURVIVED: Sweet corn, 10 seeds per plate
Protocol: (§1) Styrofoam plates were each charged with 80 ml. water. The plates are titled: (a) the ‘control’ plates; (b) the ‘Treatment 1’ plates; and (c) the ‘Treatment 2’ plates.
(§2) Into the ‘control’ plates, the ‘Treatment 1’ plates and the ‘Treatment 2’ plates were placed, at the loading of 10 seeds per plate, germinated sweet corn seeds, germinated field corn seeds, germinated snap bean, seeds, germinated cantaloupe melon seeds and germinated soy bean seeds.
(§3) The ‘Treatment 1’ plates were then each treated with 0.1 ml. of a 38% aqueous solution of the tetra-sodium salt of EDDS (having the structure as set forth in FIG. 15), or 0.000475 gm./plate, or 475 ppm per plate.
(§4) The ‘Treatment 2’ plates were then each treated with 1 ml. of a 38% aqueous solution of the tetra-odium salt of EDDS, or 0.00475 gm./plate or 4750 ppm per plate.
(§5) No EDDS salt was added to the ‘control’ plate.
(§6) Over a period of 9 days, each plate had distilled water added thereto, as needed, in order to make up for the evaporation of the water during the 9 day period.
(§7) 9 days after the trial commenced, the number of germinated seeds which survived were as set forth in attached Table I.

[4] = tested on: sweet corn seeds; assay: Sweet corn seeds on water plates treated with IDS salt alone or with EDDS salt (Example II); format: in vivo, Zea mays L. var. saccharata; conditions: 9 day period; IDS salt 4630 or 463 ppm per plate, or IDS + EDDS salt mixture (Treatment 3)
Protocol: Styrofoam plates were each charged with 80 ml. water. The plates are titled: (a) the ‘control’ plates; (b) the ‘Treatment 1’ plates; (c) the ‘Treatment 2’ plates and (d) the ‘Treatment 3’ plates.
Into the ‘control’ plates, the ‘Treatment 1’ plates, the ‘Treatment 2’ plates and the ‘Treatment 3’ plates, were placed, at a loading of 6 seeds per plate, sweet corn seeds, field corn seeds, cantaloupe melon seeds and soy bean seeds.
The ‘Treatment 1’ plates were then each treated with 1 ml. of a 37% solution of the tri-potassium salt of IDS (having the structure as set forth in FIG. 17), or 0.00463 gm./plate or 4630 ppm per plate.
The ‘Treatment 2’ plates were then each treated with 0.1 ml. of a 37% solution of the tri-potassium salt of IDS, or 0.000463 gm./plate, or 463 ppm per plate.
The ‘Treatment 3’ plates were then each treated with a mixture 0.5 ml. of a 37% solution of the tri-potassium salt of IDS and 0.5 ml. of a 38% solution of the tetra-sodium salt of EDDS, or 0.000231 gm/plate of the IDS salt and 0.000238 gm./plate of the EDDS salt.
No EDDS or IDS salts were added to the control plate.
Over a period of 9 days, each plate had distilled water added thereto, as needed, in order to make up for the evaporation of water during the 9 day period.
9 days after the trial commenced, the number of germinated seeds which survived were as set forth in attached Table II.

[5] = tested on: germinated snap bean seeds; assay: Germinated snap bean seeds on water plates treated with tetra-sodium salt of EDDS (Example I); format: in vivo, Phaseolus vulgaris L.; conditions: Snap beans, 10 seeds per plate, after 9 days
Protocol: as §1, §2, §3, §4, §5, §6, §7

[6] = tested on: germinated field corn seeds; assay: Germinated field corn seeds on water plates treated with tetra-sodium salt of EDDS (Example I); format: in vivo, Zea mays L.; conditions: after 9 days; for NUMBER OF SEED GERMINATED AND SURVIVED: Field corn, 10 seeds per plate
Protocol: as §1, §2, §3, §4, §5, §6, §7

[7] = tested on: germinated cantaloupe melon seeds; assay: Germinated cantaloupe melon seeds on water plates treated with tetra-sodium salt of EDDS (Example I); format: in vivo; conditions: 10 seeds per plate, after 9 days
Protocol: as §1, §2, §3, §4, §5, §6, §7

[8] = Treatment 1 (EDDS at 0.1 ml Per liter; 475 ppm per plate)
[9] = Treatment 2 (EDDS at 1 ml Per liter; 4750 ppm per plate)

O=C(O)CC(N[C@@H](CC(=O)O)C(=O)O)C(=O)O (stereo partly shown) [IDS free acid, N-(1,2-dicarboxyethyl)aspartic acid]
root mass versus vegetative growth [1]: promoted a greater root mass at the expense of vegetative growth, although to a significantly lesser extent than done using EDDS

O=C(O)C[C@H](NCCN[C@@H](CC(=O)O)C(=O)O)C(=O)O [S,S-ethylenediamine-N,N-disuccinic acid]
plant growth of lettuce [2]: good plant growth

O=C(O)CC(NCCNC(CC(=O)O)C(=O)O)C(=O)O (mixture of isomers) [EDDS free acid, N,N′-1,2-ethanediylbis-aspartic acid]
leaf position and internode lengths at the end of the experiment [1]: the plant leaves are lower on the main stem and internode lengths are shortened | root mass versus vegetative growth [1]: promoted a greater root mass at the expense of vegetative growth

O=C(O)CC(N[C@@H](CC(=O)O)C(=O)O)C(=O)O (stereo partly shown) [tri-potassium salt of IDS, N-(1,2-dicarboxyethyl)aspartic acid]
germinating-seed stimulating concentration [3]: about 1×10^−4 gram moles per liter | germination and uniformity of seedling growth, sweet corn seeds [4]: germinated and the resulting seedlings started to grow more uniformly

O=C(O)CC(NCCNC(CC(=O)O)C(=O)O)C(=O)O (mixture of isomers) [tetra-sodium salt of EDDS, N,N′-1,2-ethanediylbis-aspartic acid]
NUMBER OF SEED GERMINATED AND SURVIVED [5, 8]: 5 | NUMBER OF SEED GERMINATED AND SURVIVED [5, 9]: 1 | NUMBER OF SEED GERMINATED AND SURVIVED ([3]; Treatment 1 (EDDS at 0.1 ml Per liter; 475 ppm per plate), after 9 days): 10 | NUMBER OF SEED GERMINATED AND SURVIVED ([3]; Treatment 2 (EDDS at 1 ml Per liter; 4750 ppm per plate), after 9 days): 7 | germination and growth of the germinated sweet corn seeds, as compared with the control ([3]; Treatment 1 plates (475 ppm per plate), after 9 days): uniform germination and growth | germination and growth of the sweet corn ([3]; Treatment 2 plates (4750 ppm per plate), after 9 days): inhibition of the germination and growth | action on germinating seed ([3]; at a concentration of about 10×10^−4 gram moles per liter): acts as a germinating seed growth regulator | germinating-seed stimulating concentration [3]: about 1×10^−4 gram moles per liter | NUMBER OF SEED GERMINATED AND SURVIVED [6, 8]: 9 | NUMBER OF SEED GERMINATED AND SURVIVED [6, 9]: 4 | germination and growth of the field corn ([6]; Treatment 2 plates (4750 ppm per plate)): inhibition of the germination and growth | NUMBER OF SEED GERMINATED AND SURVIVED [7, 8]: 1 | NUMBER OF SEED GERMINATED AND SURVIVED [7, 9]: 0

— patent publication US6444614B2, “Aspartic acid derivative-containing compositions and use thereof in stimulating and/or regulating plant and plant precursor growth” (LidoChem Inc., priority 2000, dated 2002)
